Assay results: patent publication US20040029129A1, “Identification of essential genes in microorganisms” (priority 2001, published 2004)
≈ marks a conversion by molar mass, not a printed value.

Columns and labels:
[1] = tested on: Staphylococcus aureus cells containing antisense to the Beta subunit of DNA gyrase (S1M10000001F08); assay: Antibiotic potency in cells with xylose-induced antisense to the Beta subunit of DNA gyrase; format: cell-based; conditions: 12 mM xylose versus 0 mM xylose; FIG. 10
[2] = tested on: E. coli transformed with IPTG-inducible antisense clones; assay: Cell-based assay using antisense complementary to genes encoding ribosomal proteins (antibiotic sensitivity with and without IPTG); conditions: with IPTG versus without IPTG; for Sensitivity to antibiotic of cells transcribing antisense to protein synthesis genes: AS-rplL, AS-rplW, AS-rplL/J and other protein synthesis gene clones
[3] = tested on: overexpression of the fabI gene; assay: Growth of cells overexpressing the fabI gene in the presence of antibiotics; format: cell-based; conditions: FIG. 14
[4] = tested on: Strains of Staphylococcus aureus containing plasmids encoding antisense nucleic acids; assay: Selective disappearance of amplification products of strains underexpressing the antibiotic's target (mixed antisense strains); format: cell-based; conditions: rich medium
[5] = tested on: cells which overexpress the defB gene product; assay: Growth of cells overexpressing the defB gene in the presence of antibiotics; format: cell-based; conditions: FIG. 16
[6] = tested on: overexpression of the fabF gene (β keto-acyl carrier protein synthase); assay: Growth of cells overexpressing the fabF gene in the presence of antibiotics; format: cell-based; conditions: FIG. 17
[7] = tested on: cells which overexpress the folA gene product; assay: Growth of cells overexpressing the folA gene in the presence of antibiotics; format: cell-based; conditions: for resistance conferred by overexpression of the folA gene: FIG. 15
[8] = tested on: Staphylococcus aureus cells overexpressing a gene product required for proliferation; assay: Growth of strains overexpressing a proliferation-required gene (XylT5 promoter) at elevated antibiotic concentrations; format: cell-based; conditions: for resistance conferred by overexpression of the defB gene: defB (peptide deformylase) overexpressed, FIG. 16; for resistance conferred by overexpression of the fabF gene: fabF (β keto-acyl carrier protein synthase II) overexpressed, FIG. 17; for resistance conferred by overexpression of the fabI gene: fabI (enoyl-acyl carrier protein reductase) overexpressed, FIG. 14; for resistance conferred by overexpression of the folA gene: folA (dihydrofolate reductase) overexpressed, FIG. 15
[9] = tested on: mixture of nine S. aureus strains overexpressing fabF, defB, folA, fabI, ileS, fusA, gyrB, murA, rpoB; assay: Selection of a strain overexpressing the target gene product from a mixture of nine overexpressing strains; format: cell-based; conditions: folA gene; at least 60 colonies

**Q.** With CO/N=C(\C(=O)N[C@@H]1C(=O)N2C(C(=O)O)=C(COC(C)=O)CS[C@H]12)c1csc(N)n1 [Cefotaxime] as the compound, how does the “Potency in induced cells as compared to uninduced cells” value (shortened to “Potency … compared to uninduced cells”) [1] read?
**A.** The value was “not significantly different”.

**Q.** Which “Potency … compared to uninduced cells” value [1] does the source give for CO[C@@]1(NC(=O)Cc2cccs2)C(=O)N2C(C(=O)O)=C(COC(N)=O)CS[C@@H]21 [Cefoxitin] here?
**A.** Its value is “not significantly different”.

**Q.** For CC[C@H]1OC(=O)[C@H](C)[C@@H](O[C@H]2C[C@@](C)(OC)[C@@H](O)[C@H](C)O2)[C@H](C)[C@@H](O[C@@H]2O[C@H](C)C[C@H](N(C)C)[C@H]2O)[C@](C)(O)C[C@@H](C)C(=O)[C@H](C)[C@@H](O)[C@]1(C)O [Erythromycin], which “Sensitivity to antibiotic of cells transcribing antisense to genes not involved in protein synthesis” value ([2]; AS-atpB/E, AS-visC, AS-elaD, AS-yohH) is on record?
**A.** The value was “do not”.

**Q.** What about the “Sensitivity to antibiotic of cells transcribing antisense to protein synthesis genes” value [2] of the same compound?
**A.** Its value is “increased sensitivity”.

**Q.** With CC(=O)O[C@H]1C[C@@]2(C)[C@@H](C[C@@H](O)[C@H]3[C@@]4(C)CC[C@@H](O)[C@@H](C)[C@@H]4CC[C@@]32C)/C1=C(\CCC=C(C)C)C(=O)O [Fusidic acid] as the compound, how does the “Potency … compared to uninduced cells” value [1] read?
**A.** Its value is “not significantly different”.

**Q.** Which “Potency … compared to uninduced cells” value [1] does the source give for CCC[C@@H]1C[C@@H](C(=O)N[C@@H]([C@H]2O[C@H](SC)[C@H](O)[C@@H](O)[C@H]2O)[C@@H](C)O)N(C)C1 [Lincomycin] here?
**A.** The value was “not significantly different”.

**Q.** Which “Sensitivity to antibiotic of cells transcribing antisense to protein synthesis genes” value [2] does the source give for CCn1cc(C(=O)O)c(=O)c2ccc(C)nc21 [Nalidixic acid] here?
**A.** The value was “does not show increased sensitivity”.

**Q.** With NC[C@H]1O[C@H](O[C@H]2[C@H](O)[C@@H](O[C@H]3O[C@H](CO)[C@@H](O)[C@H](N)[C@H]3O)[C@H](N)C[C@@H]2N)[C@H](N)C[C@@H]1O [Tobramycin] as the compound, how does the “Potency … compared to uninduced cells” value [1] read?
**A.** The value was “not significantly different”.

**Q.** For CN[C@H](CC(C)C)C(=O)N[C@H]1C(=O)N[C@@H](CC(N)=O)C(=O)N[C@H]2C(=O)N[C@H]3C(=O)N[C@H](C(=O)N[C@H](C(=O)O)c4cc(O)cc(O)c4-c4cc3ccc4O)[C@H](O)c3ccc(c(Cl)c3)Oc3cc2cc(c3O[C@@H]2O[C@H](CO)[C@@H](O)[C@H](O)[C@H]2O[C@H]2C[C@](C)(N)[C@H](O)[C@H](C)O2)Oc2ccc(cc2Cl)[C@H]1O [Vancomycin], which “Potency … compared to uninduced cells” value [1] is on record?
**A.** Its value is “not significantly different”.

**Q.** How did the “resistance conferred by overexpression of the fabI gene” value [3] turn out when C/C=C/C/C=C/CCC(=O)[C@H]1O[C@H]1C(N)=O [cerulenin] was run?
**A.** Its value is “does not confer resistance”.

**Q.** And the IC50 ([4]; read-out: IC50 (middle concentration used))?
**A.** Its IC50 is 9 µg/mL (≈ 40.3 µM).

**Q.** And the “resistance conferred by overexpression of the defB gene” value [5]?
**A.** Its value is “does not confer resistance”.

**Q.** And the “resistance conferred by overexpression of the fabF gene” value [6]?
**A.** The value was “conferred resistance”.

**Q.** And the “resistance conferred by overexpression of the folA gene” value [7]?
**A.** The value was “does not confer resistance”.

**Q.** And the “resistance conferred by overexpression of the defB gene” value [8]?
**A.** Its value is “did not confer resistance”.

**Q.** What about the “resistance conferred by overexpression of the fabF gene” value [8] of the same compound?
**A.** Its value is “conferred resistance”.

**Q.** What about the “resistance conferred by overexpression of the fabI gene” value [8] of the same compound?
**A.** Its value is “did not confer resistance”.

**Q.** What about the “resistance conferred by overexpression of the folA gene” value [8] of the same compound?
**A.** The value was “did not confer resistance”.

**Q.** With C/C(=C\C(=O)OCCCCCCCCC(=O)O)C[C@@H]1OC[C@H](C[C@@H]2O[C@H]2[C@@H](C)[C@H](C)O)[C@@H](O)[C@H]1O [mupriocin] as the compound, how does the “IC50 (middle concentration used)” value [4] read?
**A.** The value was 8.6 µg/mL (≈ 17.2 µM).

**Q.** For CO[C@@H]1[C@@H](OC(N)=O)[C@@H](O)[C@H](Oc2ccc3c(O)c(NC(=O)c4ccc(O)c(CC=C(C)C)c4)c(=O)oc3c2C)OC1(C)C [novobiocin], which “Potency … compared to uninduced cells” value [1] is on record?
**A.** Its value is “significantly different”.

**Q.** Oc1cc(Cl)ccc1Oc1ccc(Cl)cc1Cl [triclosan] was tested. Which “resistance conferred by overexpression of the fabI gene” value [3] did it give?
**A.** The value was “confers resistance”.

**Q.** And the “resistance conferred by overexpression of the defB gene” value [5]?
**A.** The value was “does not confer resistance”.

**Q.** What about the “resistance conferred by overexpression of the fabF gene” value [6] of the same compound?
**A.** Its value is “does not confer resistance”.

**Q.** What about the “resistance conferred by overexpression of the folA gene” value [7] of the same compound?
**A.** The value was “does not confer resistance”.

**Q.** And the “resistance conferred by overexpression of the defB gene” value [8]?
**A.** Its value is “did not confer resistance”.

**Q.** And the “resistance conferred by overexpression of the fabF gene” value [8]?
**A.** The value was “did not confer resistance”.

**Q.** And the “resistance conferred by overexpression of the fabI gene” value [8]?
**A.** Its value is “conferred resistance”.

**Q.** And the “resistance conferred by overexpression of the folA gene” value [8]?
**A.** The value was “did not confer resistance”.

**Q.** With COc1cc(Cc2cnc(N)nc2N)cc(OC)c1OC [trimethoprim] as the compound, how does the “resistance conferred by overexpression of the fabI gene” value [3] read?
**A.** Its value is “does not confer resistance”.

**Q.** What about the “Plasmids from colonies which grew in the presence of the antibiotic that contained the target gene” value [9] of the same compound?
**A.** The value was 81%.

**Q.** And the “resistance conferred by overexpression of the defB gene” value [5]?
**A.** The value was “does not confer resistance”.

**Q.** And the “Potency … compared to uninduced cells” value [1]?
**A.** Its value is “not significantly different”.

**Q.** What about the “resistance conferred by overexpression of the fabF gene” value [6] of the same compound?
**A.** Its value is “does not confer resistance”.

**Q.** And the “resistance conferred by overexpression of the folA gene” value [7]?
**A.** Its value is “confers resistance”.

**Q.** What about the “growth of cells overexpressing the folA gene product in presence of antibiotic” value ([7]; at appropriate concentrations of inducer, FIG. 13) of the same compound?
**A.** The value was “able to grow at elevated concentrations”.

**Q.** And the “resistance conferred by overexpression of the defB gene” value [8]?
**A.** Its value is “did not confer resistance”.

**Q.** And the “resistance conferred by overexpression of the fabF gene” value [8]?
**A.** Its value is “did not confer resistance”.

**Q.** And the “resistance conferred by overexpression of the fabI gene” value [8]?
**A.** The value was “did not confer resistance”.

**Q.** What about the “resistance conferred by overexpression of the folA gene” value [8] of the same compound?
**A.** The value was “conferred resistance”.
